Legend:
[1] = test system: ryegrass, Italian; assay: Test A pre-/postemergence herbicide test; type: in vivo, Lolium multiflorum
How it was run: (§1)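 Approximately 10 days after treatment in the greenhouse, plants were compared with untreated controls and given a 0–100 visual injury rating. Applications: preemergence directed soil spray; postemergence on 2–10 cm plants at the one- to two-leaf stage.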

[2] = test system: rice; assay: Test B flooded paddy test; type: in vivo, Oryza sativa; conditions: 500 g ai/ha, Flood; scale of 0 to 100 where 0 is no effect and 100 is complete control
How it was run: (§2)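 Scoring: visual, compared with untreated controls, 0 = no effect through 100 = complete control, taken 13 to 15 days after treatment in the greenhouse. Compounds had been added to paddy water over soil flooded 3 cm deep at the plants' 2-leaf stage.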

[3] = test system: pigweed; assay: Test A pre-/postemergence herbicide test; type: in vivo, Amaranthus retroflexus
How it was run: as §1

[4] = test system: giant foxtail; assay: Test A pre-/postemergence herbicide test; type: in vivo, Setaria faberii
How it was run: as §1

[5] = test system: barnyardgrass; assay: Test B flooded paddy test; type: in vivo, Echinochloa crus-galli; conditions: 500 g ai/ha, Flood; scale of 0 to 100 where 0 is no effect and 100 is complete control
How it was run: as §2

[6] = test system: sedge, umbrella; assay: Test B flooded paddy test; type: in vivo, Cyperus difformis; conditions: 500 g ai/ha, Flood; scale of 0 to 100 where 0 is no effect and 100 is complete control
How it was run: as §2

[7] = test system: ragweed; assay: Test A pre-/postemergence herbicide test; type: in vivo, Ambrosia elatior
How it was run: as §1

[8] = test system: kochia; assay: Test A pre-/postemergence herbicide test; type: in vivo, Kochia scoparia
How it was run: as §1

[9] = test system: corn; assay: Test A pre-/postemergence herbicide test; type: in vivo, Zea mays; conditions: Postemergence
How it was run: as §1

[10] = test system: ducksalad; assay: Test B flooded paddy test; type: in vivo, Heteranthera limosa; conditions: 500 g ai/ha, Flood; scale of 0 to 100 where 0 is no effect and 100 is complete control
How it was run: as §2

[11] = test system: barnyardgrass; assay: Test A pre-/postemergence herbicide test; type: in vivo, Echinochloa crus-galli
How it was run: as §1

[12] = test system: wheat; assay: Test A pre-/postemergence herbicide test; type: in vivo, Triticum aestivum; conditions: Postemergence
How it was run: as §1

[13] = test system: blackgrass; assay: Test A postemergence herbicide test; type: in vivo, Alopecurus myosuroides
How it was run: (§3)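 Visual injury rating, 0 (no effect) to 100 (complete control), versus untreated controls ~10 days after treatment. Postemergence spray applied at one- to two-leaf stage, plants 2–10 cm tall, potted in loam soil/sand. Greenhouse-held.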

[14] = test system: galium; assay: Test A postemergence herbicide test; type: in vivo, Galium aparine
How it was run: as §3

[15] = Postemergence, 125 g ai/ha, visual rating on 0 to 100 scale (0 no effect, 100 complete control), approx. 10 days
[16] = Postemergence, 500 g ai/ha, 0 to 100 scale (0 no effect, 100 complete control)
[17] = Preemergence, 125 g ai/ha, 0 to 100 scale where 0 is no effect and 100 is complete control
[18] = preemergence, 500 g ai/ha, 0 to 100 scale, 0 is no effect and 100 is complete control
[19] = Postemergence, 125 g ai/ha, 0 to 100 scale, 0 is no effect, 100 is complete control
[20] = 125 g ai/ha, 0 to 100 scale, 0 is no effect, 100 is complete control
[21] = 500 g ai/ha, 0 to 100 scale (0 no effect, 100 complete control)
[22] = 125 g ai/ha, visual rating, 0 to 100 scale, 0 no effect, 100 complete control, approximately 10 days, preemergence

Row | Compound | Plant response rating, Ryegrass, Italian [1, 18] | Plant response rating, Rice [2] | Plant response rating, Pigweed [3, 18] | Plant response rating, Foxtail, Giant [4, 19] | Plant response rating, Foxtail, Giant [4, 18] | Plant response rating, Barnyardgrass [5] | Plant response rating, Sedge, Umbrella [6] | Plant response rating, Ragweed [7, 18] | Plant response rating, Kochia [8, 19] | Plant response rating, Kochia [8, 18] | Plant response rating, Corn [9, 20] | Plant response rating, Ducksalad [10] | Plant response rating, Barnyardgrass [11, 19] | Plant response rating, Barnyardgrass [11, 18] | Plant response rating, Blackgrass [13, 20] | Plant response rating, Galium [14, 20] | Plant response rating, Ryegrass, Italian [1, 22] | Plant response rating, Ryegrass, Italian [1, 19] | Ryegrass, Italian plant response rating (0 to 100 scale, 0 is no effect, 100 is complete control) ([1]; Postemergence, 500 g ai/ha) | Plant response rating, Pigweed [3, 22] | other results
1 | O=C1NCC(c2cc3ccccc3o2)C1C(=O)Nc1ccccc1F (racemic) [Compound 281] | 0 | 0 | 0 | 0 | 70 | 20 | 0 | 0 | 0 | 0 | 0 | 75 | 40 | 70 | 0 | 0 |  |  |  |  | Plant response rating, Ryegrass, Italian [1, 15]: 0; Plant response rating, Ryegrass, Italian [1, 16]: 0; Plant response rating, Ryegrass, Italian [1, 17]: 0; Plant response rating, Pigweed [3, 15]: 0; Plant response rating, Pigweed [3, 16]: 0; Plant response rating, Pigweed [3, 17]: 0; Plant response rating, Foxtail, Giant [4, 16]: 0; Plant response rating, Foxtail, Giant [4, 17]: 10; Plant response rating, Ragweed [7, 15]: 0; Plant response rating, Ragweed [7, 16]: 0; Plant response rating, Ragweed [7, 17]: 0; Plant response rating, Kochia [8, 16]: 0; Plant response rating, Kochia [8, 17]: 0; Plant response rating, Corn [9, 21]: 0; Plant response rating, Barnyardgrass [11, 16]: 70; Plant response rating, Barnyardgrass [11, 17]: 50; Plant response rating, Wheat ([12]; 125 g ai/ha, visual rating on 0 to 100 scale (0 no effect, 100 complete control), approx. 10 days): 0; Plant response rating, Wheat [12, 21]: 0; Plant response rating, Blackgrass [13, 21]: 0; Plant response rating, Galium [14, 21]: 0
2 | CON(C(=O)C1C(=O)NCC1c1ccc(F)c(F)c1)c1cc([N+](=O)[O-])ccc1F (stereo not drawn) [Compound 175] | 0 | 0 | 0 | 0 | 0 | 0 | 0 | 0 | 0 | 0 | 0 | 30 | 0 | 0 | 0 | 0 | 0 | 0 | 0 | 0 | Plant response rating, Pigweed [3, 19]: 0; Pigweed plant response rating (0 to 100 scale, 0 is no effect, 100 is complete control) ([3]; Postemergence, 500 g ai/ha): 0; Plant response rating, Foxtail, Giant [4, 22]: 0; Foxtail, Giant plant response rating (0 to 100 scale, 0 is no effect, 100 is complete control) ([4]; Postemergence, 500 g ai/ha): 0; Plant response rating, Ragweed [7, 22]: 0; Plant response rating, Ragweed [7, 19]: 0; Ragweed plant response rating (0 to 100 scale, 0 is no effect, 100 is complete control) ([7]; Postemergence, 500 g ai/ha): 0; Plant response rating, Kochia [8, 22]: 0; Kochia plant response rating (0 to 100 scale, 0 is no effect, 100 is complete control) ([8]; Postemergence, 500 g ai/ha): 0; Corn plant response rating (0 to 100 scale, 0 is no effect, 100 is complete control) ([9]; 500 g ai/ha): 0; Plant response rating, Barnyardgrass [11, 22]: 0; Barnyardgrass plant response rating (0 to 100 scale, 0 is no effect, 100 is complete control) ([11]; Postemergence, 500 g ai/ha): 0; Plant response rating, Wheat [12, 20]: 0; Wheat plant response rating (0 to 100 scale, 0 is no effect, 100 is complete control) ([12]; 500 g ai/ha): 0; Blackgrass plant response rating (0 to 100 scale, 0 is no effect, 100 is complete control) ([13]; 500 g ai/ha): 0; Galium plant response rating (0 to 100 scale, 0 is no effect, 100 is complete control) ([14]; 500 g ai/ha): 0
3 | O=C1NCC(c2ccc(Cl)cc2)C1C(=O)Nc1ccccc1F (stereo not drawn) [Compound 217] | 60 | 0 | 40 | 80 | 90 | 40 | 0 | 50 | 20 | 70 | 20 | 100 | 70 | 90 | 20 | 30 | 40 | 0 | 30 | 20 | Plant response rating, Pigweed [3, 19]: 0; Pigweed plant response rating (0 to 100 scale, 0 is no effect, 100 is complete control) ([3]; Postemergence, 500 g ai/ha): 0; Plant response rating, Foxtail, Giant [4, 22]: 90; Foxtail, Giant plant response rating (0 to 100 scale, 0 is no effect, 100 is complete control) ([4]; Postemergence, 500 g ai/ha): 90; Plant response rating, Ragweed [7, 22]: 0; Plant response rating, Ragweed [7, 19]: 0; Ragweed plant response rating (0 to 100 scale, 0 is no effect, 100 is complete control) ([7]; Postemergence, 500 g ai/ha): 30; Plant response rating, Kochia [8, 22]: 30; Kochia plant response rating (0 to 100 scale, 0 is no effect, 100 is complete control) ([8]; Postemergence, 500 g ai/ha): 70; Corn plant response rating (0 to 100 scale, 0 is no effect, 100 is complete control) ([9]; 500 g ai/ha): 30; Plant response rating, Barnyardgrass [11, 22]: 70; Barnyardgrass plant response rating (0 to 100 scale, 0 is no effect, 100 is complete control) ([11]; Postemergence, 500 g ai/ha): 90; Plant response rating, Wheat [12, 20]: 20; Wheat plant response rating (0 to 100 scale, 0 is no effect, 100 is complete control) ([12]; 500 g ai/ha): 30; Blackgrass plant response rating (0 to 100 scale, 0 is no effect, 100 is complete control) ([13]; 500 g ai/ha): 50; Galium plant response rating (0 to 100 scale, 0 is no effect, 100 is complete control) ([14]; 500 g ai/ha): 50
4 | O=C1NCC(c2ccc(Cl)cc2)C1C(=O)Nc1ccccc1C(F)(F)F (stereo not drawn) [Compound 219] | 0 | 0 | 0 | 60 | 90 | 40 | 0 | 0 | 0 | 70 | 0 | 100 | 40 | 60 | 40 | 30 | 0 | 0 | 0 | 0 | Plant response rating, Pigweed [3, 19]: 0; Pigweed plant response rating (0 to 100 scale, 0 is no effect, 100 is complete control) ([3]; Postemergence, 500 g ai/ha): 0; Plant response rating, Foxtail, Giant [4, 22]: 90; Foxtail, Giant plant response rating (0 to 100 scale, 0 is no effect, 100 is complete control) ([4]; Postemergence, 500 g ai/ha): 80; Plant response rating, Ragweed [7, 22]: 0; Plant response rating, Ragweed [7, 19]: 0; Ragweed plant response rating (0 to 100 scale, 0 is no effect, 100 is complete control) ([7]; Postemergence, 500 g ai/ha): 0; Plant response rating, Kochia [8, 22]: 10; Kochia plant response rating (0 to 100 scale, 0 is no effect, 100 is complete control) ([8]; Postemergence, 500 g ai/ha): 10; Corn plant response rating (0 to 100 scale, 0 is no effect, 100 is complete control) ([9]; 500 g ai/ha): 0; Plant response rating, Barnyardgrass [11, 22]: 30; Barnyardgrass plant response rating (0 to 100 scale, 0 is no effect, 100 is complete control) ([11]; Postemergence, 500 g ai/ha): 50; Plant response rating, Wheat [12, 20]: 0; Wheat plant response rating (0 to 100 scale, 0 is no effect, 100 is complete control) ([12]; 500 g ai/ha): 0; Blackgrass plant response rating (0 to 100 scale, 0 is no effect, 100 is complete control) ([13]; 500 g ai/ha): 50; Galium plant response rating (0 to 100 scale, 0 is no effect, 100 is complete control) ([14]; 500 g ai/ha): 60
